Measurements from US6365616B1, “Methimazole derivatives and tautomeric cyclic thiones to treat autoimmune diseases” (Sentron Medical, Inc., priority 1998, dated 2002).
Read-outs that look alike come from different tables or passages of the source.

System: HLA-DRα class II promoter
Test: Transient transfection CAT assay, HLA-DRα class II promoter chimeras in FRTL-5 cells
Type: cell-based
Description: Construction of the HLA-DR promoter constructs has also been described as have been their characteristics (Reimold A M, et al., ibid (1993)). Additional CAT constructs were constructed by PCR, using the HLA-DRα-CAT chimera containing −176 to +45 of 5′-flanking region as template and various primers (Montani V. et al., ibid (1998a,b)). For example, a plasmid containing −38 to +45 bp of the 5′-flanking region of HLA-DRα was constructed with the following primers: a 5′ primer with a 5′ Sph I restriction site, 5′-[…]-3′ and a 3′ primer, 5′-[…]-3′, with an Xba I restriction site (Montani V., et al., ibid (1998a,b)). The PCR products were purified by phenol-chloroform extraction, digested with Xba I and Sph I, purified from a 2% agarose gel with Jet Sorb (Genomed, Frederick, Md.), dephosphorylated with calf intestinal alkaline phosphatase (New England Biolabs, Beverly, Mass.), and religated (DNA ligation kit, Takara Biochemical, Inc., Berkeley, Calif.) into the pCAT-Basic Vector (Promega, Madison, Wis.) at the Sph I and Xba I sites as described (Reimold AM, et al., ibid (1993); Montani V., et al., ibid (1998a,b)).
To measure the promoter activity of MHC class II promoter constructs, transient transfections in FRTL-5 cells were performed, using one of the following procedures (Montani V., et al., ibid (1998a, b)). In one, FRTL-5 cells were cultivated in 6H medium to approximately 80% confluency, harvested, washed, and resuspended (1.5×10^7 cells/ml) in 0.85 ml electroporation buffer (272 mM sucrose, 7 mM sodium phosphate buffer pH 7.4, and 1 mM MgCl2). Plasmid DNA was added, 20 μg of the CAT chimera together with 2 μg pRSV-luciferase which is used to measure the efficiency of transfection. Cells were pulsed (330 V; capacitance 25 μfarad), plated (6×10^6 cells/10 cm dish), and cultured in 6H medium plus 5% calf serum supplemented or not with γ-IFN. At the times noted, cells were harvested for CAT and luciferase assays. The second procedure differed as follows. FRTL-5 cells were grown to 80% confluency in 6H medium, then maintained 6 days in 5H medium plus 5% calf serum. Cells were returned to 6H medium for 12 hours, transfected as described above, and maintained in 6H medium plus 5% calf serum for twelve hours. The medium was then changed to fresh 5H medium with 5% calf serum supplemented or not with γ-IFN. […] CAT activity was measured as described above and values were normalized to luciferase activity measured using the Promega (Madison, Wis.) assay system.
To test the effect of MMI, MMI derivatives or tautomeric cyclic thiones on γ-IFN-increased class II expression in FRTL-5 thyroid cells, the following procedure was used. Transient transfections with the −137 bp or −176 bp DRα-CAT chimeras were performed as described and treated with 100 U/ml γ-IFN for the noted times starting 12 hours after transfection. […]
In this experiment, like previous experiments, transient transfections were performed in FRTL-5 cells grown to 80% confluency in 6H medium, maintained 6 days in SH medium, and returned to 6H medium for 12 h before transfection as described. Twelve hours later, the medium was changed to fresh 5H medium, supplemented or not with 100 U/ml γ-IFN and/or 5 mM MMI. CAT activity was measured 48 h thereafter. […] Results are the mean ±SD of 3 separate experiments.

[1] = FRTL-5, 10 μM, 100 U/ml γ-interferon, 6H medium, read-out: % inhibition of IFN-increased p(−137)CAT class II promoter activity
[2] = FRTL-5, 100 μM, 100 U/ml γ-interferon, 6H medium, read-out: % inhibition of IFN-increased p(−137)CAT class II promoter activity
[3] = FRTL-5, 0.5 mM, 100 U/ml γ-interferon, 6H medium, read-out: % inhibition of IFN-increased p(−137)CAT class II promoter activity
[4] = FRTL-5, 5 mM, 100 U/ml γ-interferon, 6H medium, read-out: % inhibition of IFN-increased p(−137)CAT class II promoter activity
[5] = 10 μM, 100 U/ml γ-interferon, 6H medium
[6] = 100 μM, 100 U/ml γ-interferon, 6H medium
[7] = 0.5 mM, 100 U/ml γ-interferon, 6H medium
[8] = 5 mM, 100 U/ml γ-interferon, 6H medium
[9] = FRTL-5, read-out: % inhibition of IFN-increased p(−137)CAT class II promoter activity

Compound: Cn1ccnc1S [Compound 1, 1-Methylimidazole-2-thiol]
- inhibition at 10 µM [1]: 0%
- inhibition at 100 µM [2]: 0%
- inhibition at 500 µM [3]: 44 ± 6%
- inhibition at 5000 µM [4]: 87 ± 9%

Compound: Cc1ncc([N+](=O)[O-])n1CCO [Compound 2, 2-Methyl-5-nitro-1-imidazole ethanol]
- inhibition at 10 µM [1]: 0%
- inhibition at 100 µM [2]: 0%
- inhibition at 500 µM [3]: 55 ± 10%
- inhibition at 5000 µM [4]: 80 ± 4%

Compound: Sc1ncc[nH]1 [Compound 3, 2-Mercaptoimidazole]
- % inhibition of IFN-increased p(−137)CAT class II promoter activity [5]: None
- % inhibition of IFN-increased p(−137)CAT class II promoter activity [6]: None
- % inhibition of IFN-increased p(−137)CAT class II promoter activity [7]: None
- % inhibition of IFN-increased p(−137)CAT class II promoter activity [8]: None

Compound: Sc1nc2ccccc2[nH]1 [Compound 4, 2-Mercaptobenzimidazole]
- inhibition at 10 µM [9]: 0%
- inhibition at 100 µM [9]: 0%
- inhibition at 500 µM [9]: 29 ± 12%
- inhibition at 5000 µM [9]: 73 ± 14%

Compound: O=[N+]([O-])c1ccc2[nH]c(S)nc2c1 [Compound 5, 2-Mercapto-5-nitrobenzimidazole]
- inhibition at 5000 µM [4]: 39 ± 13%

Compound: Cc1ccc2[nH]c(S)nc2c1 [Compound 6, 2-Mercapto-5-methylbenzimidazole]
- inhibition at 5000 µM [4]: 44 ± 8%

Compound: CSc1nccn1C [Compound 7, S-Methylmethimazole]
- inhibition at 10 µM [1]: 0%
- inhibition at 100 µM [2]: 20 ± 15%
- inhibition at 500 µM [3]: 75 ± 6%
- inhibition at 5000 µM [4]: 84 ± 15%

Compound: Cn1ccn(C)c1=S [Compound 8, N-Methylmethimazole]
- % inhibition of IFN-increased p(−137)CAT class II promoter activity [5]: 0%
- % inhibition of IFN-increased p(−137)CAT class II promoter activity [6]: 43 ± 9%
- % inhibition of IFN-increased p(−137)CAT class II promoter activity [7]: 79 ± 11%
- % inhibition of IFN-increased p(−137)CAT class II promoter activity [8]: 88 ± 10%

Compound: Cc1cnc(S)n1C [Compound 9, 5-Methylmethimazole]
- inhibition at 10 µM [1]: 0%
- inhibition at 100 µM [2]: 0%
- inhibition at 500 µM [3]: 14 ± 12%
- inhibition at 5000 µM [4]: 44 ± 18%

Compound: Cn1c(-c2ccccc2)cnc1S [Compound 10, 5-Phenylmethimazole]
- inhibition at 10 µM [1]: 45 ± 17%
- inhibition at 100 µM [2]: 88 ± 15%
- inhibition at 500 µM [3]: 95 ± 5%
